{
  "source": "the supplement of paper PMC11208160",
  "data": [
    {"assay": "recombinant barcode read abundance after kanamycin selection (control-corrected) (log10(CPM+1)); higher = more efficient recombination; sequences stand for … in AGTGCAGAGAAAATCGGCCAGTTTTCTCTGCCTGCAGTCCGCATGCCGT…AGATTTATGCAGCGGACTGCCTTTCTCCCAAAGTGATAAACCGGACAGTATCATGGACCGGTTTTCCCGGTAATCCGTATTTGCAAGGTTGGTTTCACT; site = the 11-nt target", "outline": "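In a pooled screen in E. coli, targets were paired with target-binding loops of the IS621 bridge RNA. Each oligo carried a promoter, a target, a barcode and the first 104 bridge RNA bases driven by J23119, and was Gibson-cloned into a vector holding the remaining 73 bp and a T7-inducible recombinase before co-electroporation with a donor plasmid. Duplicate platings went onto chloramphenicol/ampicillin LB agar as the control or onto chloramphenicol/ampicillin/kanamycin with 0.1 mM IPTG. Recombination efficiency is the averaged, control-corrected count per million of barcodes at recombinant junctions, given as log10(CPM+1).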", "values": [
      {"sequence": "AGCCCTCCTTGGGTTCTAACCTGTTGCTA (site AGCCCTCCTCA)", "recombinant barcode read abundance (log10)": 0.449},
      {"sequence": "AGCCCTCCTTGGGTTCTAACCTGTTGCTA (site AGCCCTCCTGA)", "recombinant barcode read abundance (log10)": 0.222},
      {"sequence": "AGCCCTCCTTGGGTTCTAACCTGTTGCTA (site AGCCCTCCTTA)", "recombinant barcode read abundance (log10)": 1.37},
      {"sequence": "AGCCCTCCTTGGGTTCTAACCTGTTGCTG (site AGCCCTCCTAA)", "recombinant barcode read abundance (log10)": 0.0691},
      {"sequence": "AGCCCTCCTTGGGTTCTAACCTGTTGCTG (site AGCCCTCCTCA)", "recombinant barcode read abundance (log10)": 1.49},
      {"sequence": "AGCCCTCCTTGGGTTCTAACCTGTTGCTG (site AGCCCTCCTGA)", "recombinant barcode read abundance (log10)": 0.109},
      {"sequence": "AGCCCTCCTTGGGTTCTAACCTGTTGCTG (site AGCCCTCCTTA)", "recombinant barcode read abundance (log10)": 0.0866},
      {"sequence": "AGCCGAACTTGGGTTCTAACCTGTTGCCT (site AGCCGAACTAG)", "recombinant barcode read abundance (log10)": 0.832},
      {"sequence": "AGCCGAACTTGGGTTCTAACCTGTTGCCT (site CGCCGAACTAG)", "recombinant barcode read abundance (log10)": 0.11},
      {"sequence": "AGCCGAACTTGGGTTCTAACCTGTTGCCT (site GGCCGAACTAG)", "recombinant barcode read abundance (log10)": 0.478},
      {"sequence": "AGCCGAACTTGGGTTCTAACCTGTTGCCT (site TGCCGAACTAG)", "recombinant barcode read abundance (log10)": 0.0692},
      {"sequence": "AGCCTATCTTGGGTTCTAACCTGTTGCCA (site AGCCTATCTTG)", "recombinant barcode read abundance (log10)": 0.101},
      {"sequence": "AGCCTATCTTGGGTTCTAACCTGTTGCCA (site CTAGCCGCTAA)", "recombinant barcode read abundance (log10)": 0.109},
      {"sequence": "AGCCTTACTTGGGTTCTAACCTGTTGCCT (site AACCTTACTAG)", "recombinant barcode read abundance (log10)": 0.106},
      {"sequence": "AGCCTTACTTGGGTTCTAACCTGTTGCCT (site ACCCTTACTAG)", "recombinant barcode read abundance (log10)": 0.275},
      {"sequence": "AGCCTTACTTGGGTTCTAACCTGTTGCCT (site AGCCTTACTAG)", "recombinant barcode read abundance (log10)": 0.171},
      {"sequence": "AGCCTTACTTGGGTTCTAACCTGTTGCCT (site ATCCTTACTAG)", "recombinant barcode read abundance (log10)": 0.122},
      {"sequence": "AGCCTTGCTTGGGTTCTAACCTGTTGCCT (site AGCATTGCTAG)", "recombinant barcode read abundance (log10)": 0.0195},
      {"sequence": "AGCCTTGCTTGGGTTCTAACCTGTTGCCT (site AGCCTTGCTAG)", "recombinant barcode read abundance (log10)": 0.7},
      {"sequence": "AGCCTTGCTTGGGTTCTAACCTGTTGCCT (site AGCGTTGCTAG)", "recombinant barcode read abundance (log10)": 0.566},
      {"sequence": "AGCCTTGCTTGGGTTCTAACCTGTTGCCT (site AGCTTTGCTAG)", "recombinant barcode read abundance (log10)": 0.167},
      {"sequence": "AGCGAAGCTTGGGTTCTAACCTGTTGCCT (site AGCGAAGCTAG)", "recombinant barcode read abundance (log10)": 0.382},
      {"sequence": "AGCGAAGCTTGGGTTCTAACCTGTTGCCT (site AGCGAGGCTAG)", "recombinant barcode read abundance (log10)": 0.3},
      {"sequence": "AGCGAATCTTGGGTTCTAACCTGTTGCCT (site AGAGAATCTAG)", "recombinant barcode read abundance (log10)": 0.0521},
      {"sequence": "AGCGAATCTTGGGTTCTAACCTGTTGCCT (site AGCGAATCTAG)", "recombinant barcode read abundance (log10)": 0.719},
      {"sequence": "AGCGAATCTTGGGTTCTAACCTGTTGCCT (site AGGGAATCTAG)", "recombinant barcode read abundance (log10)": 0.323},
      {"sequence": "AGCGAATCTTGGGTTCTAACCTGTTGCCT (site AGTGAATCTAG)", "recombinant barcode read abundance (log10)": 0.158},
      {"sequence": "AGCGACCCTTGGGTTCTAACCTGTTGCGT (site AGCGACCCTAC)", "recombinant barcode read abundance (log10)": 3.18},
      {"sequence": "AGCGACCCTTGGGTTCTAACCTGTTGCGT (site CGCGATCCTAC)", "recombinant barcode read abundance (log10)": 0.16},
      {"sequence": "AGCGAGTCTTGGGTTCTAACCTGTTGCCT (site AACGAGTCTAG)", "recombinant barcode read abundance (log10)": 0.951},
      {"sequence": "AGCGAGTCTTGGGTTCTAACCTGTTGCCT (site ACCGAGTCTAG)", "recombinant barcode read abundance (log10)": 0.817},
      {"sequence": "AGCGAGTCTTGGGTTCTAACCTGTTGCCT (site AGCGAGTCTAG)", "recombinant barcode read abundance (log10)": 2.08},
      {"sequence": "AGCGAGTCTTGGGTTCTAACCTGTTGCCT (site ATCGAGTCTAG)", "recombinant barcode read abundance (log10)": 0.465},
      {"sequence": "AGCGCTACTTGGGTTCTAACCTGTTGCCT (site ACCGCTACTAG)", "recombinant barcode read abundance (log10)": 0.121},
      {"sequence": "AGCGCTACTTGGGTTCTAACCTGTTGCCT (site AGCGCTACTAG)", "recombinant barcode read abundance (log10)": 0.145},
      {"sequence": "AGCTAACCTTGGGTTCTAACCTGTTGCCT (site AGCTAACCTAG)", "recombinant barcode read abundance (log10)": 0.407},
      {"sequence": "AGCTAACCTTGGGTTCTAACCTGTTGCCT (site AGTGAACCTAG)", "recombinant barcode read abundance (log10)": 0.127},
      {"sequence": "AGCTACCCTTGGGTTCTAACCTGTTGCTT (site ACCTACTCTAA)", "recombinant barcode read abundance (log10)": 0.0582},
      {"sequence": "AGCTACCCTTGGGTTCTAACCTGTTGCTT (site AGCTACCCTAA)", "recombinant barcode read abundance (log10)": 0.62},
      {"sequence": "AGCTCCTCTTGGGTTCTAACCTGTTGCCT (site AGCTCCTCTAG)", "recombinant barcode read abundance (log10)": 0.0883},
      {"sequence": "AGCTCCTCTTGGGTTCTAACCTGTTGCCT (site CGCTCCTCTAG)", "recombinant barcode read abundance (log10)": 0.144},
      {"sequence": "AGCTCCTCTTGGGTTCTAACCTGTTGCCT (site GGCTCCTCTAG)", "recombinant barcode read abundance (log10)": 0.0482},
      {"sequence": "AGCTCCTCTTGGGTTCTAACCTGTTGCCT (site TGCTCCTCTAG)", "recombinant barcode read abundance (log10)": 0.0453}
    ]}
  ]
}
